Results as given in PubChem BioAssay (NCI).
Several values for one entry are separate records, joined by “and”; a condition that tells them apart may be missing. Equal values may be shown once.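 Cells were grown in 96-well plates and exposed to each compound for 48 hours at five concentrations; endpoints were interpolated linearly between bracketing concentrations, or set to the highest concentration if not reached. GI50 = concentration required for 50% inhibition of growth. At the TGI there is no net growth.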

Legend:
Assay in all cases: inhibition of tumour cell growth, NCI panel, 48 h
HCC-2998 colon = test system: HCC-2998 colon
SNB-19 CNS = test system: SNB-19 CNS
A498 renal = test system: A498 renal
RPMI-8226 leukemia = test system: RPMI-8226 leukemia
SF-268 CNS = test system: SF-268 CNS
NCI-H522 lung = test system: NCI-H522 lung
HT29 colon = test system: HT29 colon
UACC-62 melanoma = test system: UACC-62 melanoma
IGROV1 ovarian = test system: IGROV1 ovarian
OVCAR-5 ovarian = test system: OVCAR-5 ovarian

Structure (SMILES)	GI50 (HCC-2998 colon)	TGI (HCC-2998 colon)	GI50 (SNB-19 CNS)	TGI (SNB-19 CNS)	GI50 (A498 renal)	TGI (A498 renal)	GI50 (RPMI-8226 leukemia)	TGI (RPMI-8226 leukemia)	GI50 (SF-268 CNS)	TGI (SF-268 CNS)	GI50 (NCI-H522 lung)	TGI (NCI-H522 lung)	GI50 (HT29 colon)	TGI (HT29 colon)	GI50 (UACC-62 melanoma)	TGI (UACC-62 melanoma)	GI50 (IGROV1 ovarian)	TGI (IGROV1 ovarian)	GI50 (OVCAR-5 ovarian)	TGI (OVCAR-5 ovarian)
C=CCCCCCCCCC(=O)[O][Sn]([CH2]CCC)([CH2]CCC)[CH2]CCC	0.156 µM	0.291 µM	0.198 µM	0.384 µM	0.14 µM	0.276 µM	0.035 µM	0.278 µM	0.149 µM	0.309 µM	0.141 µM	0.296 µM	0.154 µM	0.332 µM	0.168 µM	0.349 µM	0.148 µM	0.335 µM	0.128 µM	0.297 µM
CC1(C)OC2[C@@H](CNC(=O)NC(=O)NC(=O)CI)O[C@@H](n3cnc4c(NC(=O)Nc5ccccc5)ncnc43)[C@H]2O1 (stereo not given in full)	9.29 µM	19.7 µM	27.1 µM	> 50 µM	18 µM	> 50 µM	7.82 µM	23.3 µM	8.22 µM	17.1 µM	0.742 µM	1.5 µM	3.96 µM	12.2 µM	8.44 µM	17.1 µM	2.15 µM	8.6 µM	8.74 µM	18 µM
CCCn1cnc2c(SCc3ccccc3Cl)nc(N)nc21	17.8 µM	67 µM	25.8 µM	> 100 µM	18.3 µM	> 100 µM	6.28 µM	28.2 µM	12.1 µM	92.7 µM	19.4 µM	71.1 µM	7.59 µM	> 100 µM	8.53 µM	22.7 µM	13.3 µM	> 100 µM	25.7 µM	91.9 µM
O=C(N/N=C/c1ccccc1O)c1ccccc1Nc1ccnc(C(F)(F)F)c1	0.388 µM	24.7 µM	1.77 µM	> 100 µM	18.1 µM	> 91.6 µM	0.189 µM	1.64 µM	0.448 µM	> 89.3 µM	5.74 µM	> 58.9 µM	3.32 µM	53.5 µM	0.365 µM	7 µM	0.0154 µM	0.0883 µM	4.34 µM	> 92.3 µM
O=C1Nc2c(C(F)(F)F)cccc2[C@]1(c1ccc(O)cc1)c1ccc(OC(F)(F)F)cc1	14 µM	29.8 µM	14.1 µM	27.2 µM	14.7 µM	30 µM	10.4 µM	59.1 µM	8.73 µM	24 µM	12.9 µM	28.5 µM	10.3 µM	28.9 µM	11.9 µM	25 µM	9.42 µM	23.4 µM	12 µM	24.4 µM
[Cl-].[Dy+3].[O-]/N=C(\c1ccccc1)c1ccccn1.[O-]/N=C(\c1ccccc1)c1ccccn1.[O-]/N=C(\c1ccccc1)c1ccccn1	27.6 µM	88.8 µM	38 µM	> 100 µM	25.8 µM	> 100 µM	45.1 µM	> 100 µM	30.2 µM	98.9 µM	19.5 µM	65.6 µM	45.9 µM	> 100 µM	32.5 µM	> 100 µM	33.1 µM	> 100 µM	42.4 µM	> 100 µM
CC(=O)OC[C@]1(C)C=C2C(=O)[C@](C)(O)C3(CC3)C(C)=C2[C@H]1O	0.0985 µM	0.353 µM	0.193 µM	1.28 µM	0.148 µM	0.366 µM	13.9 µM	> 81.5 µM	0.0384 µM	0.499 µM	0.0798 µM	0.39 µM	0.0339 µM	> 100 µM	0.0894 µM	0.302 µM	0.0457 µM	0.364 µM	0.0666 µM	0.506 µM
CC(C)C(=O)NC(=S)Nc1ccc([N+](=O)[O-])cc1C#N		> 100 µM		> 100 µM		> 100 µM		> 100 µM		> 100 µM		> 100 µM		> 100 µM		> 100 µM		> 100 µM		> 100 µM
CC/C(=C(/c1ccc(O)cc1)c1ccc(OCCNC)cc1)c1ccccc1	1.9 µM	3.46 µM	3.12 µM	11.9 µM	1.64 µM	6.55 µM	2.05 µM	4.64 µM	2.48 µM	7.27 µM	1.87 µM	3.68 µM	2.02 µM	3.83 µM	1.8 µM	3.54 µM	2.77 µM	7.66 µM	2.37 µM	6.25 µM
COc1cc2c(c(O)c1Br)C(=O)c1c(O)cc(C[C@H](C)O)cc1[C@H]2[C@H]1c2cc(C[C@H](C)O)cc(O)c2C(=O)c2c1cc(OC)c(Br)c2O	8.39 µM and 14.8 µM	67.5 µM and > 100 µM	5.07 µM and 10.4 µM	67.5 µM and 80.1 µM	4.35 µM and 22.5 µM	35.1 µM and 58.5 µM	2.19 µM and 3 µM	67.5 µM and 11.4 µM	12.3 µM and 31.2 µM	67.5 µM and > 100 µM	8.02 µM and 25.7 µM	18.9 µM and 78.7 µM	2.39 µM and 4.83 µM	67.5 µM and > 100 µM	2.47 µM and 17.5 µM	13.7 µM and 90.7 µM	2.98 µM and 5.45 µM	46.7 µM and 28.2 µM	11.1 µM and 17.1 µM	27.4 µM and 46.5 µM
Cn1c2ccccc2c2c(-c3ccccc3)[n+]3ccncc3nc21	> 100 µM	> 100 µM	51.8 µM	> 100 µM	> 100 µM	> 100 µM	36.1 µM	> 100 µM	51.3 µM	> 100 µM	48 µM	> 100 µM	> 100 µM	> 100 µM	> 100 µM	> 100 µM	70.8 µM	> 100 µM	> 100 µM	> 100 µM
C[C@]12CC[C@H]3[C@@H](CC=C4C[C@@H](O)CC[C@@]43C)[C@@H]1CC[C@@H]2N(CCO)CCO		94.9 µM		> 100 µM		73 µM		> 100 µM		> 100 µM		> 100 µM		> 100 µM		> 100 µM		> 100 µM		> 100 µM
CSC(C1c2ccccc2N(c2ccc(C)cc2)C2=NC(=O)N(C)C(=O)C21Cl)S(=O)(=O)c1ccc(C)cc1 (stereo not given)		36.6 µM		85.2 µM		92.7 µM		57 µM		62.5 µM		31.9 µM		57 µM		52 µM		85.6 µM		83.2 µM
